Patent US10538495B2, “Modulators of indoleamine 2,3-dioxygenase” (GLAXOSMITHKLINE INTELLECTUAL PROPERTY DEVELOPMENT LIMITED, priority 2016, dated 2020)

Columns and labels:
[1] = biological target: T1, indoleamine 2,3-dioxygenase (IDO1) (Homo sapiens, UniProt P14902); test: PBMC IDOi assay (kynurenine by mass spectrometry); format: cell-based; conditions: IFN-γ and LPS stimulated human PBMC, 2 days, kynurenine detected by mass spectrometry; read-out: PBMC pIC50 (converted)
Description: (§1) Brief descriptions of the cellular assays are provided following the table.
(§2) Compounds of the present invention were tested via high-throughput cellular assays utilizing detection of kynurenine via mass spectrometry and cytotoxicity as end-points. For the mass spectrometry and cytotoxicity assays, human peripheral blood mononuclear cells (PBMC) (PB003F; AllCells®, Alameda, Calif.) were stimulated with human interferon-γ (IFN-γ) (Sigma-Aldrich Corporation, St. Louis, Mo.) and lipopolysaccharide from Salmonella minnesota (LPS) (Invivogen, San Diego, Calif.) to induce the expression of indoleamine 2,3-dioxygenase (IDO1). Compounds with IDO1 inhibitory properties decreased the amount of kynurenine produced by the cells via the tryptophan catabolic pathway. Cellular toxicity due to the effect of compound treatment was measured using CellTiter-Glo® reagent (CTG) (Promega Corporation, Madison, Wis.), which is based on luminescent detection of ATP, an indicator of metabolically active cells.
(§3) In preparation for the assays, test compounds were serially diluted 3-fold in DMSO from a typical top concentration of 5 mM and plated at 0.5 μL in 384-well, polystyrene, clear bottom, tissue culture treated plates with lids (Greiner Bio-One, Kremsmünster, Austria) to generate 11-point dose response curves. Low control wells (0% kynurenine or 100% cytotoxicity) contained either 0.5 μL of DMSO in the presence of unstimulated (−IFN-γ/−LPS) PBMCs for the mass spectrometry assay or 0.5 μL of DMSO in the absence of cells for the cytotoxicity assay, and high control wells (100% kynurenine or 0% cytotoxicity) contained 0.5 μL of DMSO in the presence of stimulated (+IFN-γ/+LPS) PBMCs for both the mass spectrometry and cytotoxicity assays.
Frozen stocks of PBMCs were washed and recovered in RPMI 1640 medium (Thermo Fisher Scientific, Inc., Waltham, Mass.) supplemented with 10% v/v heat-inactivated fetal bovine serum (FBS) (Thermo Fisher Scientific, Inc., Waltham, Mass.), and 1× penicillin-streptomycin antibiotic solution (Thermo Fisher Scientific, Inc., Waltham, Mass.). The cells were diluted to 1,000,000 cells/mL in the supplemented RPMI 1640 medium. 50 μL of either the cell suspension, for the mass spectrometry assay, or medium alone, for the cytotoxicity assay, were added to the low control wells, on the previously prepared 384-well compound plates, resulting in 50,000 cells/well or 0 cells/well respectively. IFN-γ and LPS were added to the remaining cell suspension at final concentrations of 100 ng/ml and 50 ng/ml respectively, and 50 μL of the stimulated cells were added to all remaining wells on the 384-well compound plates. The plates, with lids, were then placed in a 37° C., 5% CO2 humidified incubator for 2 days.
Following incubation, the 384-well plates were removed from the incubator and allowed to equilibrate to room temperature for 30 minutes. For the cytotoxicity assay, CellTiter-Glo® was prepared according to the manufacturer's instructions, and 40 μL were added to each plate well. After a twenty minute incubation at room temperature, luminescence was read on an EnVision® Multilabel Reader (PerkinElmer Inc., Waltham, Mass.). For the mass spectrometry assay, 10 μL of supernatant from each well of the compound-treated plates were added to 40 μL of acetonitrile, containing 10 μM of an internal standard for normalization, in 384-well, polypropylene, V-bottom plates (Greiner Bio-One, Kremsmünster, Austria) to extract the organic analytes. Following centrifugation at 2000 rpm for 10 minutes, 10 μL from each well of the acetonitrile extraction plates were added to 90 μL of sterile, distilled H2O in 384-well, polypropylene, V-bottom plates for analysis of kynurenine and the internal standard on the RapidFire 300 (Agilent Technologies, Santa Clara, Calif.) and 4000 QTRAP MS (SCIEX, Framingham, Mass.). […]

[2] = biological target: T1, indoleamine 2,3-dioxygenase (IDO1); test: HeLa IDOi assay (kynurenine by mass spectrometry); format: cell-based; design: human epithelial HeLa cells (CCL-2; host or cells: HeLa cells stimulated with human IFN-γ; conditions: IFN-γ stimulated HeLa cells, 2 days, kynurenine detected by mass spectrometry; read-out: HeLa pIC50 (converted)
Description: as §1
as §2, with “epithelial HeLa” for “peripheral blood mononuclear”, “(CCL-2; ATCC®, Manassas, Va.)” for “(PBMC) (PB003F; AllCells®, Alameda, Calif.)”, “Mo.)” for “Mo.) and lipopolysaccharide from Salmonella minnesota (LPS) (Invivogen, San Diego, Calif.)”
as §3, with “(−IFN-γ) HeLa cells” for “(−IFN-γ/−LPS) PBMCs”, “(+IFN-γ) HeLa cells” for “(+IFN-γ/+LPS) PBMCs”
Frozen stocks of HeLa cells were washed and recovered in DMEM high glucose medium with HEPES (Thermo Fisher Scientific, Inc., Waltham, Mass.) supplemented with 10% v/v certified fetal bovine serum (FBS) (Thermo Fisher Scientific, Inc., Waltham, Mass.), and 1× penicillin-streptomycin antibiotic solution (Thermo Fisher Scientific, Inc., Waltham, Mass.). The cells were diluted to 100,000 cells/mL in the supplemented DMEM medium. 50 μL of either the cell suspension, for the mass spectrometry assay, or medium alone, for the cytotoxicity assay, were added to the low control wells, on the previously prepared 384-well compound plates, resulting in 5,000 cells/well or 0 cells/well respectively. IFN-γ was added to the remaining cell suspension at a final concentration of 10 nM, and 50 μL of the stimulated cells were added to all remaining wells on the 384-well compound plates. The plates, with lids, were then placed in a 37° C., 5% CO2 humidified incubator for 2 days.
Following incubation, the 384-well plates were removed from the incubator and allowed to equilibrate to room temperature for 30 minutes. For the cytotoxicity assay, CellTiter-Glo® was prepared according to the manufacturer's instructions, and 10 μL were added to each plate well. After a twenty minute incubation at room temperature, luminescence was read on an EnVision® Multilabel Reader (PerkinElmer Inc., Waltham, Mass.). For the mass spectrometry assay, 10 μL of supernatant from each well of the compound-treated plates were added to 40 μL of acetonitrile, containing 10 μM of an internal standard for normalization, in 384-well, polypropylene, V-bottom plates (Greiner Bio-One, Kremsmünster, Austria) to extract the organic analytes. Following centrifugation at 2000 rpm for 10 minutes, 10 μL from each well of the acetonitrile extraction plates were added to 90 μL of sterile, distilled H2O in 384-well, polypropylene, V-bottom plates for analysis of kynurenine and the internal standard on the RapidFire 300 (Agilent Technologies, Santa Clara, Calif.) and 4000 QTRAP MS (SCIEX, Framingham, Mass.). MS data were integrated using Agilent Technologies' RapidFire Integrator software, and data were normalized for analysis as a ratio of kynurenine to the internal standard. […]

T1 sequence (P14902 whole entry): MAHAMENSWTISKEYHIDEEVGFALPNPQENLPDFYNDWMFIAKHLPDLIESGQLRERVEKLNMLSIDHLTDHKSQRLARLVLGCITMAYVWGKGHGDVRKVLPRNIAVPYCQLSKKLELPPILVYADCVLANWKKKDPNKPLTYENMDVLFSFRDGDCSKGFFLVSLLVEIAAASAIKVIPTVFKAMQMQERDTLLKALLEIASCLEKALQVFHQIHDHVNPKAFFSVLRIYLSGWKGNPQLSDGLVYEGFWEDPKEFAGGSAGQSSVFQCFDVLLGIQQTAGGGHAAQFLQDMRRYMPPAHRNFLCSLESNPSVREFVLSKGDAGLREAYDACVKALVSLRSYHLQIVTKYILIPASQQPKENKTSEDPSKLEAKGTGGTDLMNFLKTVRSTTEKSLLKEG

SMILES | IC50 [1] [nM] | IC50 [2] [nM]
Cc1ccc(CC(=O)Nc2cc(-c3ccccc3C(=O)O)ccc2SC(C)(C)C)cc1 [Example 4, 4′-(tert-Butylthio)-3′-(2-(p-tolyl)acetamido)-[1,1′-biphenyl]-2-carboxylic acid] | 794 | 316
Cc1ccc(CC(=O)Nc2cc(-c3ccccc3-c3nn[nH]n3)ccc2Sc2ccccc2)cc1 [Example 10] | 126 | 251
Cc1ccc(NC(=O)Nc2cc(-c3ccccc3C(=O)O)ccc2SC(C)(C)C)cc1 [Example 14, 4′-(tert-Butylthio)-3′-(3-(p-tolyl)ureido)-[1,1′-biphenyl]-2-carboxylic Acid] | 1580 | –
Cc1ccc(CC(=O)Nc2cc(-c3ccccc3-c3nn[nH]n3)ccc2S(=O)(=O)c2ccccc2)cc1 [Example 15, N-(4-(phenylsulfonyl)-2′-(2H-tetrazol-5-yl)-[1,1′-biphenyl]-3-yl)-2-(p-tolyl)acetamide] | 2000 | 2000
Cc1ccc(OC(=O)Nc2cc(-c3ccccc3-c3nn[nH]n3)ccc2SC(C)(C)C)cc1 [Example 35, p-Tolyl (4-(tert-butylthio)-2′-(2H-tetrazol-5-yl)-[1,1′-biphenyl]-3-yl)carbamate] | 1580 | > 3160
CC(C)(C)Sc1ccc(-c2ccccc2-c2nn[nH]n2)cc1NC(=O)c1ccccc1 [Example 36, N-(4-(tert-butylthio)-2′-(2H-tetrazol-5-yl)-[1,1′-biphenyl]-3-yl)benzamide] | 1260 | 2510
Cc1ccc(CC(=O)Nc2cc(C(C)CC(=O)O)ccc2SC(C)(C)C)cc1 (stereo not drawn) [Example 44, 3-(4-(tert-Butylthio)-3-(2-(p-tolyl)acetamido)phenyl)butanoic Acid] | 3980 | –
COCn1nnc(-c2ccccc2-c2ccc(SC(C)(C)C)c(NC(=O)Cc3ccc(C)cc3)c2)n1 [Example 59, N-(4-(tert-butylthio)-2′-(2-(methoxymethyl)-2H-tetrazol-5-yl)-[1,1′-biphenyl]-3-yl)-2-(p-tolyl)acetamide] | – | 398
COCn1nnnc1-c1ccccc1-c1ccc(SC(C)(C)C)c(NC(=O)Cc2ccc(C)cc2)c1 [Example 60, N-(4-(tert-butylthio)-2′-(1-(methoxymethyl)-1H-tetrazol-5-yl)-[1,1′-biphenyl]-3-yl)-2-(p-tolyl)acetamide] | – | 63.1
Cc1ccc(CC(=O)Nc2cc(-c3ccccc3-c3nnnn3C)ccc2SC(C)(C)C)cc1 [Example 62, N-(4-(tert-butylthio)-2′-(1-methyl-1H-tetrazol-5-yl)-[1,1′-biphenyl]-3-yl)-2-(p-tolyl)acetamide] | – | 501

Now from value to molecule:

IC50 [1] [nM] | IC50 [2] [nM] | SMILES
12.6 | 15.8 | Cc1ccc(CC(=O)Nc2cc(-c3ccccc3-c3nn[nH]n3)ccc2SC(C)(C)C)cc1 [Example 1, N-(4-(tert-butylthio)-2′-(2H-tetrazol-5-yl)-[1,1′-biphenyl]-3-yl)-2-(p-tolyl)acetamide]
79.4 | 398 | Cc1ccc(NC(=O)Nc2cc(-c3ccccc3-c3nn[nH]n3)ccc2SC(C)(C)C)cc1 [Example 13, 1-(4-(tert-Butylthio)-2′-(2H-tetrazol-5-yl)-[1,1′-biphenyl]-3-yl)-3-(p-tolyl)urea]
10 | 15.8 | Cc1ccccc1CC(=O)Nc1cc(-c2ccccc2-c2nn[nH]n2)ccc1SC(C)(C)C [Example 19, N-(4-(tert-butylthio)-2′-(2H-tetrazol-5-yl)-[1,1′-biphenyl]-3-yl)-2-(o-tolyl)acetamide]
20 | 25.1 | Cc1cccc(CC(=O)Nc2cc(-c3ccccc3-c3nn[nH]n3)ccc2SC(C)(C)C)c1 [Example 20, N-(4-(tert-butylthio)-2′-(2H-tetrazol-5-yl)-[1,1′-biphenyl]-3-yl)-2-(m-tolyl)acetamide]
3.16 | 3.98 | CC(C)c1ccc(CC(=O)Nc2cc(-c3ccccc3-c3nn[nH]n3)ccc2SC(C)(C)C)cc1 [Example 27, N-(4-(tert-butylthio)-2′-(2H-tetrazol-5-yl)-[1,1′-biphenyl]-3-yl)-2-(4-isopropylphenyl)acetamide]
25.1 | 79.4 | CC(C)(C)Sc1ccc(-c2ccccc2-c2nn[nH]n2)cc1NC(=O)Cc1ccc(Cl)cc1 [Example 34, N-(4-(tert-butylthio)-2′-(2H-tetrazol-5-yl)-[1,1′-biphenyl]-3-yl)-2-(4-chlorophenyl)acetamide]
251 | 794 | Cc1ccc(CCC(=O)Nc2cc(-c3ccccc3-c3nn[nH]n3)ccc2SC(C)(C)C)cc1 [Example 37, N-(4-(tert-butylthio)-2′-(2H-tetrazol-5-yl)-[1,1′-biphenyl]-3-yl)-3-(p-tolyl)propanamide]
– | 631 | Cc1ccc(CC(=O)Nc2cc(-c3ccccc3-c3nnn(C)n3)ccc2SC(C)(C)C)cc1 [Example 61, N-(4-(tert-butylthio)-2′-(2-methyl-2H-tetrazol-5-yl)-[1,1′-biphenyl]-3-yl)-2-(p-tolyl)acetamide]
